Experimental findings from patent publication US20200337310A1, “Herbicidal Combinations” (UPL LTD, priority 2018, published 2020) are described below.

What all share (assay): Field trial, weed control burn down symptoms at 5 DAT
What all share (conditions): field trial India, glufosinate ammonium 400, carfentrazone 10, imazethapyr 100 gm/ha

Assay [1] concerns Parthenium hysterophorus.
Assay [2] relates to Trianthema monogyna.
Assay [3] deals with Dinebra retroflexa.
Assay [4] concerns Cyprus spp.

`CCc1cnc(C2=NC(C)(C(C)C)C(=O)N2)c(C(=O)O)c1` (racemic) [Imazethapyr, 5-ethyl-2-[(RS)-4-isopropyl-4-methyl-5-oxo-2-imidazolin-2-yl]nicotinic acid]: in assay [1], the “% Weed control Burn Down Symptoms Generation, Parthenium hysterophorus, Actual” value is listed as 5%. Besides, the “% Weed control Burn Down Symptoms Generation, Trianthema monogyna, Actual” value in assay [2] is 10%. Moreover, the “% Weed control Burn Down Symptoms Generation, Dinebra retroflexa, Actual” value in assay [3] worked out at 0%. Besides, in assay [4], the “% Weed control Burn Down Symptoms Generation, Cyprus spp, Actual” value is 00%.

As for `CCOC(=O)C(Cl)Cc1cc(-n2nc(C)n(C(F)F)c2=O)c(F)cc1Cl` (racemic) [Carfentrazone, ethyl (RS)-2-chloro-3-{2-chloro-5-[4-(difluoromethyl)-4,5-dihydro-3-methyl-5-oxo-1H-1,2,4-triazol-1-yl]-4-fluorophenyl}propionate], in assay [1], the “% Weed control Burn Down Symptoms Generation, Parthenium hysterophorus, Actual” value amounted to 5%. Besides, in assay [2], the “% Weed control Burn Down Symptoms Generation, Trianthema monogyna, Actual” value was 70%. Further, the “% Weed control Burn Down Symptoms Generation, Dinebra retroflexa, Actual” value in assay [3] was found to be 0%. Further, the “% Weed control Burn Down Symptoms Generation, Cyprus spp, Actual” value in assay [4] stood at 60%.

In the case of `CP(=O)(O)CCC(N)C(=O)O` (racemic) [Glufosinate ammonium, (2RS)-2-amino-4-[hydroxy(methyl)phosphinoyl]butyric acid], the “% Weed control Burn Down Symptoms Generation, Parthenium hysterophorus, Actual” value in assay [1] is on record as 30%. Further, the “% Weed control Burn Down Symptoms Generation, Trianthema monogyna, Actual” value in assay [2] is reported as 25%. Besides, the “% Weed control Burn Down Symptoms Generation, Dinebra retroflexa, Actual” value in assay [3] is listed as 15%. The “% Weed control Burn Down Symptoms Generation, Cyprus spp, Actual” value in assay [4] stood at 5%.
